This is an account of results in patent US20130065897A1, “COMPOUNDS, PREPARATION AND USES THEREOF” (PETER MACCALLUM CANCER INSTITUTE, priority 2009, published 2013).

The IC50 is the concentration that gives 50% inhibition. The inhibition is the percentage by which the read-out fell short of the control. Read a high inhibition as strong suppression.

Format in all cases: cell-based
One data set has as its target recombinant perforin (UniProt P10820). How it is done:
Inhibition of Perforin-Mediated Lysis of Jurkat Cells
The ability of the compounds to inhibit the lysis of nucleated (Jurkat T lymphoma) cells in the presence of 0.1% BSA, as measured by release of ^51Cr was measured. Jurkat target cells were labelled by incubation in medium with 100 μCi ^51Cr for one hour. The cells were then washed three times to remove unincorporated isotope and re-suspended at 1×10^5 cells per mL in RPMI buffer supplemented with 0.1% BSA. […] The supernatant was collected and assessed for its radioactive content on a gamma counter (Wallac Wizard 1470 automatic gamma counter). Each data point was performed in triplicate and an IC50 was calculated from the range of concentrations described to above.

Data set [1] concerns KHYG-1 NK cell-mediated lysis of K562 cells. In words: Inhibition of KHYG-1 NK cell-mediated lysis of K562 cells (51Cr release). Particulars: K562 target cells, Effector:Target 2:1, 4 hours 37° C. How it is done: Inhibition of KHYG-1 NK Cell-Mediated lysis of K562 Cells
KHYG-1 cells were washed and resuspended in RPMI+0.1% BSA at 4×10^5 cells/ml and 50 μl of KHYG-1 cells were dispensed to each well of a 96-well V-bottom, plate. Test compounds were added to KHYG-1 cells at various concentrations up to 20 μM and incubated at RT for 20 minutes. 1×10^6 K562 target cells were labelled with 75 μCi ^51Cr in 200 μl RPMI for 90 mins at 37° C., cells were washed as described above and resuspended in 5 ml RPMI+0.1% BSA. 50 μl of ^51Cr labelled K562 leukemia target cells were added to each well of the KHYG-1 plate (Effector:Target 2:1) and incubated at 37° C. for 4 hours. ^51Cr release was assayed using a Skatron Harvesting Press and radioactivity estimated on a Wallac Wizard 1470 Automatic Gamma counter (Turku, Finland). The percentage of specific cytotoxicity was calculated by the formula: […]
and expressed as the mean of triplicate assays +/−standard error of the mean.

Another data set deals with KHYG-1 NK cells. Nature of the data set: Toxicity to KHYG-1 NK cells (trypan blue viability). The settings on record: viable cells as percentage of total (% viability), 18 to 24 hours. The method, then:
Toxicity to KHYG-1 NK Cells
KHYG-1 cells were washed and resuspended in RPMI+0.1% BSA at 4×10^5 cells/ml and 50 μl of KHYG-1 cells were dispensed to each well of a 96-well V-bottom plate. Test compounds were added to KHYG-1 cells at a concentration of 20 μM and incubated at RT for 20 minutes. 100 μL of RPMI 0.1% BSA was added and the cells were incubated for 4 hours at 37° C. then washed ×3 in RPMI+0.1% BSA. Cells were then resuspended in 200 μl of complete medium and incubated for 18 to 24 hours at 37° C. Trypan blue was added to each well and viable (clear) cells counted as a percentage of total (clear+blue) cell number (% viability).

Where [2] appears, read: read-out: Jurkat IC50; recombinant perforin pre-incubated 30 min with compound; 51Cr-labelled Jurkat cells, 0.1% BSA, 37° C. 4 hours.
Setting [3] is: recombinant perforin pre-incubated 30 min with compound; 51Cr-labelled Jurkat cells, 0.1% BSA, 37° C. 4 hours; read-out: Jurkat IC50.

Like-named read-outs stand apart in the source and are kept apart here.

recombinant perforin, sequence (P10820 whole entry): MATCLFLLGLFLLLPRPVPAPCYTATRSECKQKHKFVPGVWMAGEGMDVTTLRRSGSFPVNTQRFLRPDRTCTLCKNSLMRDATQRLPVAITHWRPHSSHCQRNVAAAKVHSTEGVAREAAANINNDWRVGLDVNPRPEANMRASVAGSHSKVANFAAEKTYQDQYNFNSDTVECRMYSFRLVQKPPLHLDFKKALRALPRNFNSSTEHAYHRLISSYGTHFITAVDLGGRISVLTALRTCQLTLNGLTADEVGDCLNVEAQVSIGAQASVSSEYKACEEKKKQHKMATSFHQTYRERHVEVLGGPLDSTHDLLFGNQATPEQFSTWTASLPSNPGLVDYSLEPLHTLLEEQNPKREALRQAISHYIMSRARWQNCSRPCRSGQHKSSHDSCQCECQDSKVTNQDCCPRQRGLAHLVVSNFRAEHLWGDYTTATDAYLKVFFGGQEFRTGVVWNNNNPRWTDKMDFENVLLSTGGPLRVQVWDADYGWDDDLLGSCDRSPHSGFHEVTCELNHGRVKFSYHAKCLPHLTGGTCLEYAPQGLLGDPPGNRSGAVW

On to `O=C1NC(=S)N/C1=C/c1ccc(-c2ccc3c(c2)COC3=O)s1` [Cmpd 2, (E,Z)-5-((5-(1-Oxo-1,3-dihydroisobenzofuran-5-yl)thiophen-2-yl)methylene)-2-thioxoimidazolidin-4-one], for which, on recombinant perforin (setting [2]), the IC50 amounted to 0.76 µM. The inhibition at 20 µM in data set [1] is 52%. For the same compound, in the data set on KHYG-1 NK cells, the “percent viable KHYG-1 cells (trypan blue) at 20 μM” value (from here on “percent viable KHYG-1 cells”) was determined as 83%.

Regarding `O=C1NC(=S)N/C1=C/c1ccc(-c2ccc3c(c2)COC3=O)cn1` [Cmpd 7], the IC50 on recombinant perforin (setting [3]) was 2 µM.

For `O=C1NC(=S)N/C1=C/c1ccc2cc(-c3ccc4c(c3)COC4=O)ccc2n1` [Cmpd 14, (E,Z)-5-((6-(1-Oxo-1,3-dihydroisobenzofuran-5-yl)quinolin-2-yl)methylene)-2-thioxoimidazolidin-4-one], on recombinant perforin (setting [3]), the IC50 came out at 0.47 µM. In addition, the “Inhibition of KHYG-1 at 20 μM” value in data set [1] was determined as 56%. For the same compound, the “percent viable KHYG-1 cells” value in the data set with KHYG-1 NK cells came out at 81%.

Take `NC(=O)c1ccc(-c2ccc(/C=C3/NC(=S)NC3=O)s2)cc1` [Cmpd 16, (E,Z)-4-(5-((5-oxo-2-thioxoimidazolidin-4-ylidene)methyl)thiophen-2-yl)benzamide]: on recombinant perforin (setting [2]), the IC50 was found to be 1.56 µM. Also, in data set [1], the inhibition at 20 µM is 80%. In addition, the “percent viable KHYG-1 cells” value with KHYG-1 NK cells was 52%.

Turning to `NC(=O)c1cccc(-c2ccc(/C=C3/NC(=S)NC3=O)s2)c1` [Cmpd 17, (E,Z)-3-(5-((5-Oxo-2-thioxoimidazolidin-4-ylidene)methyl)thiophen-2-yl)benzamide], on recombinant perforin (setting [2]), the IC50 is 0.79 µM. Besides, the inhibition at 20 µM in data set [1] came to 35%. For the same compound, in the data set on KHYG-1 NK cells, the “percent viable KHYG-1 cells” value turned out to be 100%.

On to `CC(=O)OCc1ccc(-c2ccc(/C=C3/NC(=S)NC3=O)s2)cc1` [Cmpd 18, (E,Z)-4-(5-((5-Oxo-2-thioxoimidazolidin-4-ylidene)methyl)thiophen-2-yl)benzyl acetate], for which the IC50 on recombinant perforin (setting [2]) stood at 3.04 µM. The compound further showed an inhibition at 20 µM in data set [1] of 98%. Moreover, the “percent viable KHYG-1 cells” value in the data set on KHYG-1 NK cells came out at 100%.

`COC(=O)c1ccc(-c2ccc(/C=C3/NC(=S)NC3=O)s2)cc1` [Cmpd 19, (E,Z)-Methyl 4-(5-((5-oxo-2-thioxoimidazolidin-4-ylidene)methyl)thiophen-2-yl)benzoate]: the concentration for half-maximal inhibition (IC50) on recombinant perforin (setting [2]) was found to be 1.62 µM. For the same compound, the inhibition at 20 µM in data set [1] turned out to be 30%. The “percent viable KHYG-1 cells” value with KHYG-1 NK cells came out at 95%.

Regarding `CC(=O)c1ccc(-c2ccc(/C=C3/NC(=S)NC3=O)s2)cc1` [Cmpd 20, (E,Z)-5-((5-(4-Acetylphenyl)thiophen-2-yl)methylene)-2-thioxoimidazolidin-4-one], the IC50 on recombinant perforin (setting [2]) turned out to be 1.67 µM. In data set [1], this compound yielded an inhibition at 20 µM of 90%. In addition, the “percent viable KHYG-1 cells” value in the data set with KHYG-1 NK cells is given as 100%.

Turning to `COC(=O)c1ccc(-c2ccc(/C=C3/NC(=S)NC3=O)s2)cc1C` [Cmpd 21, (E,Z)-Methyl 2-methyl-4-(5-((5-oxo-2-thioxoimidazolidin-4-ylidene)methyl)thiophen-2-yl)benzoate], the IC50 on recombinant perforin (setting [2]) is 3.03 µM. Also, in data set [1], at 20 µM the inhibition was 92%.

In the case of `O=C1NC(=S)N/C1=C/c1ccc(-c2cccc(Cl)c2)s1` [Cmpd 23, (E,Z)-5-((5-(3-Chlorophenyl)thiophen-2-yl)methylene)-2-thioxoimidazolidin-4-one], at recombinant perforin (setting [2]), the IC50 worked out at 7.19 µM. In addition, the inhibition at 20 µM in data set [1] was 92%. Moreover, in the data set with KHYG-1 NK cells, the “percent viable KHYG-1 cells” value was found to be 55%.

Regarding `O=C1NC(=S)N/C1=C/c1ccc(-c2ccc(Cl)cc2)s1` [Cmpd 24, (E,Z)-5-((5-(4-Chlorophenyl)thiophen-2-yl)methylene)-2-thioxoimidazolidin-4-one], at recombinant perforin (setting [2]), the concentration for half-maximal inhibition (IC50) turned out to be 5.22 µM. In data set [1], this compound yielded an inhibition at 20 µM of 59%. Further, the “percent viable KHYG-1 cells” value in the data set on KHYG-1 NK cells was 89%.

With `O=C1NC(=S)N/C1=C/c1ccc(-c2ccncc2)s1` [Cmpd 25, (E,Z)-5-((5-(Pyridin-4-yl)thiophen-2-yl)methylene)-2-thioxoimidazolidin-4-one], the IC50 at recombinant perforin (setting [2]) is 10.1 µM.

Regarding `CSc1ccc(-c2ccc(/C=C3/NC(=S)NC3=O)s2)cc1` [Cmpd 27], the IC50 at recombinant perforin (setting [2]) was 1.15 µM. The compound further had an inhibition at 20 µM in data set [1] of 43%. Besides, the “percent viable KHYG-1 cells” value in the data set on KHYG-1 NK cells amounted to 83%.

Turning to `CS(=O)(=O)c1ccc(-c2ccc(/C=C3/NC(=S)NC3=O)s2)cc1` [Cmpd 28, (E,Z)-5-((5-(4-(Methylsulfonyl)phenyl)thiophen-2-yl)methylene)-2-thioxoimidazolidin-4-one], the IC50 at recombinant perforin (setting [2]) was 13.8 µM.

With `O=C1NC(=S)N/C1=C/c1ccc(-c2ccc(F)cc2)s1` [Cmpd 29, (E,Z)-5-((5-(4-Fluorophenyl)thiophen-2-yl)methylene)-2-thioxoimidazolidin-4-one], the IC50 on recombinant perforin (setting [2]) is 6.69 µM.

For the compound `O=C1NC(=S)N/C1=C/c1ccc(-c2ccc(F)c(F)c2)s1` [Cmpd 30, (E,Z)-5-((5-(3,4-Difluorophenyl)thiophen-2-yl)methylene)-2-thioxoimidazolidin-4-one], at recombinant perforin (setting [2]), the IC50 amounted to 4.59 µM.

For the compound `O=C1NC(=S)N/C1=C/c1ccc(-c2cccc(F)c2)s1` [Cmpd 31, (E,Z)-5-((5-(3-Fluorophenyl)thiophen-2-yl)methylene)-2-thioxoimidazolidin-4-one], on recombinant perforin (setting [2]), the IC50 was determined as 10.8 µM.

Turning to `O=C1NC(=S)N/C1=C/c1ccc(-c2ccc(Br)cc2)s1` [Cmpd 32, (E,Z)-5-((5-(4-Bromophenyl)thiophen-2-yl)methylene)-2-thioxoimidazolidin-4-one], the IC50 at recombinant perforin (setting [2]) came out at 1.69 µM. This compound displayed an inhibition at 20 µM in data set [1] of 66%. Moreover, the “percent viable KHYG-1 cells” value in the data set on KHYG-1 NK cells came to 83%.

For the compound `CS(=O)(=O)Nc1ccc(-c2ccc(/C=C3/NC(=S)NC3=O)s2)cc1` [Cmpd 33, (E,Z)-N-(4-(5-((5-Oxo-2-thioxoimidazolidin-4-ylidene)methyl)thiophen-2-yl)phenyl)methanesulfonamide], the IC50 on recombinant perforin (setting [2]) turned out to be 7.7 µM. Also, the inhibition at 20 µM in data set [1] stood at 32%.

On to `O=C1NC(=S)N/C1=C/c1ccc(-c2ccc(C(=O)NCCO)cc2)s1` [Cmpd 42, (E,Z)-N-(2-Hydroxyethyl)-4-(5-((5-oxo-2-thioxoimidazolidin-4-ylidene)methyl)thiophen-2-yl)benzamide], for which the IC50 at recombinant perforin (setting [2]) came out at 3.64 µM. In addition, the inhibition at 20 µM in data set [1] was found to be 42%.

For `O=C1NC(=S)N/C1=C/c1ccc(-c2ccc(C(=O)NCCCO)cc2)s1` [Cmpd 44, (E,Z)-N-(3-Hydroxypropyl)-4-(5-((5-oxo-2-thioxoimidazolidin-4-ylidene)methyl)thiophen-2-yl)benzamide], the IC50 at recombinant perforin (setting [2]) was 4.35 µM. Also, the inhibition at 20 µM in data set [1] was found to be 52%.

`O=C1NC(=S)NC1=Cc1ccc(-c2ccc3c(c2)CNC3=O)cc1` [Cmpd 48, (E,Z)-5-(4-((5-Oxo-2-thioxoimidazolidin-4-ylidene)methyl)phenyl)isoindolin-1-one]: the IC50 on recombinant perforin (setting [2]) was found to be 5.55 µM. The compound also registered an inhibition at 20 µM in data set [1] of 16%.

For the compound `CN1Cc2cc(-c3ccc(/C=C4/NC(=S)NC4=O)s3)ccc2C1=O` [Cmpd 61, (E,Z)-2-Methyl-5-(5-((5-oxo-2-thioxoimidazolidin-4-ylidene)methyl)thiophen-2-yl)isoindolin-1-one], at 20 µM the inhibition in data set [1] was 83%. Besides, the “percent viable KHYG-1 cells” value with KHYG-1 NK cells was determined as 76%.

Regarding `O=C1NC(=S)N/C1=C/c1ccc(-c2ccc3c(c2)CN(CC(O)CO)C3=O)s1` (stereo not drawn) [Cmpd 78, (E,Z)-2-(2,3-Dihydroxypropyl)-5-(5-((5-oxo-2-thioxoimidazolidin-4-ylidene)methyl)thiophen-2-yl)isoindolin-1-one], at recombinant perforin (setting [2]), the IC50 turned out to be 1.26 µM. Besides, the inhibition at 20 µM in data set [1] came out at 19%.

Turning to `CN1CCc2ccc(-c3ccc(/C=C4\NC(=S)NC4=O)s3)cc2C1=O` [Cmpd 83, (E,Z)-2-Methyl-7-(5-((5-oxo-2-thioxoimidazolidin-4-ylidene)methyl)thiophen-2-yl)-3,4-dihydroisoquinolin-1(2H)-one], the IC50 at recombinant perforin (setting [2]) came to 4.76 µM. The inhibition at 20 µM in data set [1] was 91%.

Take `CN1CCc2cc(-c3ccc(/C=C4\NC(=S)NC4=O)s3)ccc2C1=O` [Cmpd 84, (E,Z)-2-Methyl-6-(5-((5-oxo-2-thioxoimidazolidin-4-ylidene)methyl)thiophen-2-yl)-3,4-dihydroisoquinolin-1(2H)-one]: the IC50 on recombinant perforin (setting [2]) was 2.33 µM. In data set [1], this compound returned an inhibition at 20 µM of 72%.
